Laboratory results taken from ChEMBL document CHEMBL1201862, “PubChem BioAssay data set” (2004).
Activity calls are given as the source filed them. Rule as the data show it, for most assays here: actives have a measured IC50 and inactives only a lower limit.

Columns and labels:
[1] = target: T1, Nucleotide-binding oligomerization domain-containing protein 1 (Homo sapiens, UniProt Q9Y239); experiment: blockers of NOD1 pathway activity – revised, SAR follow-up (AID 2333); assay type: functional
T1 sequence (Q9Y239 whole entry): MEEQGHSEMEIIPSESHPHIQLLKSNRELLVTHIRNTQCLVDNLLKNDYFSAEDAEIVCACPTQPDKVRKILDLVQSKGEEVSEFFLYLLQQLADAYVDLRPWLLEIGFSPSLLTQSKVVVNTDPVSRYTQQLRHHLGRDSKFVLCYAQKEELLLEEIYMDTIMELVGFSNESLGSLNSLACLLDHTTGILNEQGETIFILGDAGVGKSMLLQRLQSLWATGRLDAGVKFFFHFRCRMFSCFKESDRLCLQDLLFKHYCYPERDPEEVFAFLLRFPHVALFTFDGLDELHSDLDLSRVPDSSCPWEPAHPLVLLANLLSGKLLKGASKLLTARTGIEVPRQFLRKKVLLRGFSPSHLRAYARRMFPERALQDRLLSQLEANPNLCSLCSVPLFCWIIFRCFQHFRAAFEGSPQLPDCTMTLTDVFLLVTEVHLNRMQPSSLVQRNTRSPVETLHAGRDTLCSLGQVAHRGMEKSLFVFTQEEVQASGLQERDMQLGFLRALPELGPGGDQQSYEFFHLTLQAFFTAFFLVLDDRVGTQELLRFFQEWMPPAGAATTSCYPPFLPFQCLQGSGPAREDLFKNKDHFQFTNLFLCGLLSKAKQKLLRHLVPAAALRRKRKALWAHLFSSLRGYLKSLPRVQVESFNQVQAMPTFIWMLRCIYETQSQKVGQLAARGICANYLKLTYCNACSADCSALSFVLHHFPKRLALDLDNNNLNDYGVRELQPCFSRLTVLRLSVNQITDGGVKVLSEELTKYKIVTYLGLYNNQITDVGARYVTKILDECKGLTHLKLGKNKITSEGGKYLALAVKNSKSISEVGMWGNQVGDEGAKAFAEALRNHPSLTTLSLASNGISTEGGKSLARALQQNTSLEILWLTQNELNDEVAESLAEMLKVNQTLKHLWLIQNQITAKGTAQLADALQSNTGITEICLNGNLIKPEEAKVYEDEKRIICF

Tumor necrosis factor = Tumor necrosis factor (Homo sapiens, UniProt P01375); experiment: analog potency on TNFa NF-kB signaling – cell-based, revised, SAR follow-up (AID 2337); assay type: functional
[2] = HIV-1 AD8 envelope cell-cell fusion blockers – cherry-pick, dose response (AID 652062); assay type: functional, cell-based;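 also: luciferase signal from cell-cell fusion driven by HIV-1 clade B AD8 Env; potency is for inhibitors of fusion seen as a drop in luminescence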
HEK293 = experiment: cells; settings: Homo sapiens
[3] = target: Nucleotide-binding oligomerization domain-containing protein 2 (Homo sapiens, UniProt Q9HC29); experiment: PubChem AID 2334; assay type: functional
[4] = target: Scavenger receptor class B member 1 (Mus musculus, UniProt Q61009); experiment: mouse SR-BI DiI-HDL uptake blockers – ldlA[mSR-BI] cells, fluorescence, cherry pick, dose response (AID 493194); assay type: functional, cell-based;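 also: cellular uptake of fluorescent DiI-labeled HDL measured as cell fluorescence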
Sequence of Scavenger receptor class B member 1 (Q61009 whole entry): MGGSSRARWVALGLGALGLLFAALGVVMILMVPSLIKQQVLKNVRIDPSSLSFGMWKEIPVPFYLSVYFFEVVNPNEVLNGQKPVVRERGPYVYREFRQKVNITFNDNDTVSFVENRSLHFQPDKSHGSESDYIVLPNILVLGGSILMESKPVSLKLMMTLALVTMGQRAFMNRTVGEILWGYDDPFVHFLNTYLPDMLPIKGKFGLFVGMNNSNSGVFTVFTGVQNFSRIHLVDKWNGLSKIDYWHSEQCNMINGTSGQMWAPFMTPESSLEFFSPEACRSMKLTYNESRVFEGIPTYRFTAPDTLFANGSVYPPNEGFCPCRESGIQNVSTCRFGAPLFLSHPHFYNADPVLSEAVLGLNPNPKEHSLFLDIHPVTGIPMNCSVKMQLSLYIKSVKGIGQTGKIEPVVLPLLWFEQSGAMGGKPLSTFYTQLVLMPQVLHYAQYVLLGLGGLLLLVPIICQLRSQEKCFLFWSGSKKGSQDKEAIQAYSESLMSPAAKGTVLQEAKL

Sequence of Tumor necrosis factor (P01375 whole entry, the tested form may be a part): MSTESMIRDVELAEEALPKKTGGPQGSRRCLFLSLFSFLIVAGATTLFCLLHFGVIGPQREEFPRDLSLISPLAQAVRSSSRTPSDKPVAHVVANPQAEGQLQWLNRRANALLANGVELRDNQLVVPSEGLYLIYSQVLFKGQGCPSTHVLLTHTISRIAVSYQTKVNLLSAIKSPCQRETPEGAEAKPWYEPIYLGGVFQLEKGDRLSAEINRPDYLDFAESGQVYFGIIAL
Sequence of Nucleotide-binding oligomerization domain-containing protein 2 (Q9HC29 whole entry, the tested form may be a part): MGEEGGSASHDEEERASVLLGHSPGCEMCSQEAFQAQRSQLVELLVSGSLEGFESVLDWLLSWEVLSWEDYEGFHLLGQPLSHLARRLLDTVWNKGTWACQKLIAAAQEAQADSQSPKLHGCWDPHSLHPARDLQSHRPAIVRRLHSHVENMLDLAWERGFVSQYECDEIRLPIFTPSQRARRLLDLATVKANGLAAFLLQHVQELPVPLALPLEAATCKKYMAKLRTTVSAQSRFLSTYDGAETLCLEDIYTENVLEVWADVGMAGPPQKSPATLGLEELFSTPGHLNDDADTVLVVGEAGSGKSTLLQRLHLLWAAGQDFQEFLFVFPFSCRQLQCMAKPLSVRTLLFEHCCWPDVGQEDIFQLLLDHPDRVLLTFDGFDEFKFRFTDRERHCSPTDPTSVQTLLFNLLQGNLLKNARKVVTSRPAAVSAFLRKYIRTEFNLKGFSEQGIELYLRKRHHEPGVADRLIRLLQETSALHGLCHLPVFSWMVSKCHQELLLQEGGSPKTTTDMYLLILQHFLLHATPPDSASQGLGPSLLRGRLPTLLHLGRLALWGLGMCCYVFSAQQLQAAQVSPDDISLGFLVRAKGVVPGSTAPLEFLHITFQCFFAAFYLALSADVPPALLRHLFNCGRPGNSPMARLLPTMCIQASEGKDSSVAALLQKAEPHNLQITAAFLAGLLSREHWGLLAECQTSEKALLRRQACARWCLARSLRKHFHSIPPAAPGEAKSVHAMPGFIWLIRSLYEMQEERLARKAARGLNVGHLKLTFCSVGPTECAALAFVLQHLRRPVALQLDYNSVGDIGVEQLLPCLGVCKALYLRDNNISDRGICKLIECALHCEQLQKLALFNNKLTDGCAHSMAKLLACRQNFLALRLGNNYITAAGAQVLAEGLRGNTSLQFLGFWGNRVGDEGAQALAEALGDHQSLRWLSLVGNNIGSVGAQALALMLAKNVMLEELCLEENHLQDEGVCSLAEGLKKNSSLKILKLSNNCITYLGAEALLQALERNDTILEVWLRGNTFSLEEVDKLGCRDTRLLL

## Cc1ccc(NC(=O)c2ccc(CN3CCc4ccccc4C3)cc2)cc1
[1]
  IC50: 3.44 µM (active)
Tumor necrosis factor
  IC50: > 20 µM (inactive)
[2]
  AC50: 5.75 µM (active)
HEK293
  IC50: > 20 µM (inactive)
[3]
  IC50: > 20 µM (inactive)

## COCc1cc(=O)oc2cc(NC(=O)c3ccc(C(C)(C)C)cc3)ccc12
[4]
  AC50: 50.2 µM (active)
